Test results: US20240148740A1, “COMBINATION OF AN AHR INHIBITOR WITH A PDX INHIBITOR OR DOXORUBICINE” (Ikena Oncology, Inc., priority 2020, published 2024)
“Also recorded” adds a separate entry of the source. Read-outs that look alike come from different tables or passages of the source.

How the values were obtained:
AHR [1] = target: T1, AHR (Mus musculus, UniProt P30561); experiment: Pharmacodynamics: CYP1A1 mRNA in murine liver and spleen after VAG539; type: in vivo
T1 sequence (P30561 10-805): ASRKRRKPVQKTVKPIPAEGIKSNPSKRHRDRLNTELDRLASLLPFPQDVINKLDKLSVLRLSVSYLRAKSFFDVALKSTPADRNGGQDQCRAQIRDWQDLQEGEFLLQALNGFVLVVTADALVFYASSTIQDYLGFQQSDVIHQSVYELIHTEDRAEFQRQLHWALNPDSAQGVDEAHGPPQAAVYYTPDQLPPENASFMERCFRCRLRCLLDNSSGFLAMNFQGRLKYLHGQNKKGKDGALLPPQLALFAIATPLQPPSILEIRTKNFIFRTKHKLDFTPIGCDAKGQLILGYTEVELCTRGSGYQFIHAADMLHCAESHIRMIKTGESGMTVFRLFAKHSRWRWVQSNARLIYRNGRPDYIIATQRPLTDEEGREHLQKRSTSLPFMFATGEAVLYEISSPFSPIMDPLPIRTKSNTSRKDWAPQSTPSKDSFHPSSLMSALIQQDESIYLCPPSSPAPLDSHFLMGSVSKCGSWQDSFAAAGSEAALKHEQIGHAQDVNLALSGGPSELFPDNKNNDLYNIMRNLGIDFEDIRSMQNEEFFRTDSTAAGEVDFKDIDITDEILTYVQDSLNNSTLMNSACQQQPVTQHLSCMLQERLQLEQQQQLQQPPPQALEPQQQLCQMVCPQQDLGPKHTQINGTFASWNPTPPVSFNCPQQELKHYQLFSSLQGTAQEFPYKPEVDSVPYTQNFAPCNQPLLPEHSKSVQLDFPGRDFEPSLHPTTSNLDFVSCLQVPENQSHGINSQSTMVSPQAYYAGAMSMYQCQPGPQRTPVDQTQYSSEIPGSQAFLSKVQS
Method: Mice were sacrificed at 4 and 10 hours postdose and RNA was extracted and gene expression of CYP1A1 and the housekeeping gene mouse glyceraldehyde 3-phosphate dehydrogenase were quantified. CYP1A1 mRNA expression levels for each dose group for liver and spleen tissues were normalized to the control group.

[2] = Phase 1 study, safety of single agent dose escalation; type: in vivo; settings: 200 mg, 400 mg, 800 mg, and 1200 mg QD, monotherapy, human patients
Source text: This is a first-in-human (FIH), open-label, multicenter, dose-escalation and expansion study to evaluate the safety, tolerability, PK, pharmacodynamics, and preliminary antitumor activity of Compound A administered orally (PO). There will be two arms: a single agent Compound A arm and a combination arm of Compound A with nivolumab in patients with advanced solid tumors and urothelial carcinoma. The Safety Review Committee (SRC) comprised of the enrolling study Investigators and the Sponsor will use the mTPI-2 design (Guo, 2017) and assess all safety data available to guide dose escalation and de-escalation decisions and subject enrollment for both arms. To assess evidence of preliminary antitumor activity in patients with urothelial carcinoma, a Simon 2-stage design (Simon, 1989) is used for both arms.
A baseline Screening period is followed by a by a Single-dose Run-in period (up to 7 days) to assess the PK of Compound A without food. The Single Agent treatment arm comprises daily oral administration of Compound A in the fed state. […]
Toxicity is evaluated according to National Cancer Institute Common Terminology Criteria for Adverse Events (AEs) (NCI-CTCAE) v5.0. […]

[3] = Nonclinical safety studies in monkeys (incl. 28-day GLP); type: in vivo, monkey
AHR [4] = target: AHR (Macaca fascicularis, UniProt A0A7N9CQA9); experiment: AHR-dependent gene expression in cynomolgus PBMCs (Quantigene Plex); type: cell-based, cynomolgus macaque; settings: cynomolgus PBMCs ex vivo
AHR (Macaca fascicularis, UniProt A0A7N9CQA9), sequence (A0A7N9CQA9 entry or part of it): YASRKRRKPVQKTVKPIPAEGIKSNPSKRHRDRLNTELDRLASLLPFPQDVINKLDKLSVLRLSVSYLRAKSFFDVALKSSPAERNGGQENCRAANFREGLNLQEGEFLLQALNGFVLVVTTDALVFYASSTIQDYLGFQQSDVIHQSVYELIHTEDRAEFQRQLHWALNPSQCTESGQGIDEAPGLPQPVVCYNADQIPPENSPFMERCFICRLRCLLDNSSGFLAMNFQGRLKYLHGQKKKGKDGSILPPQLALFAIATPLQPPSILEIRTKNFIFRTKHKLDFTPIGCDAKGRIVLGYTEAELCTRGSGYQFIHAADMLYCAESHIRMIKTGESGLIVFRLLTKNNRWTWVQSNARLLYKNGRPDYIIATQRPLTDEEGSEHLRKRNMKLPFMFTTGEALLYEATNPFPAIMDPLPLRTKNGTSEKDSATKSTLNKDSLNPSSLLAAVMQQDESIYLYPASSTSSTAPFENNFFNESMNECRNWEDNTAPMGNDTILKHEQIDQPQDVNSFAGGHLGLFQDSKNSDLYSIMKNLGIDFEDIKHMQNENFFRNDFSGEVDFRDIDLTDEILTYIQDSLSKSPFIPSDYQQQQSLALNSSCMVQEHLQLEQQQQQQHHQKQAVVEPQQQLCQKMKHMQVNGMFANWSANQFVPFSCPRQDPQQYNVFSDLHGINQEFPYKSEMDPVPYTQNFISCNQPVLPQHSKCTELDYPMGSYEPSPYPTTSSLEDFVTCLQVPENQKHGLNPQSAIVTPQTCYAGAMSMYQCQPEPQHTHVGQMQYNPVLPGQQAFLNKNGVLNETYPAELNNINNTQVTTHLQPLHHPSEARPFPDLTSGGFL
Method: The effect of Compound A on AHR-dependent gene expression was assessed in peripheral blood mononuclear cells (PBMCs) of cynomolgus macaque monkeys to assess activity in the non-rodent tox species. Cynomolgus PBMCs were treated ex vivo with Compound A and gene expression of AHR-dependent genes CYP1B1 and AHR was quantified using Quantigene Plex (QGP) custom panels.

[5] = Levels of doxorubicin in plasma (UPLC); type: in vivo, mouse; settings: day 28 after cell inoculation; FIG. 7
Method: To analyze the levels of doxorubicin in plasma, blood was collected using retro-orbital vein bleeding. Plasma was generated after centrifuging blood in dipotassium EDTA tubes for 10 min at 4° C. Plasma was transferred in new tubes and stored at −80° C.
Doxorubicin levels in plasma were analyzed by UPLC.
To determine whether Compound A treatment had any effects on doxorubicin metabolism, the levels of doxorubicin in plasma were analyzed on day 28 after cell inoculation.

human T cells = experiment: Human T cell assays (summary); type: cell-based
Method: AHR plays a key role in immune cells and its' inhibition is proposed to reverse immune suppression and activate T cells. The ability of Compound A to inhibit AHR-dependent CYP1A1 expression and cytokine production was assessed in primary human T cells. AHR directly regulates the expression of the immune suppressive cytokine IL-22. Human T cells isolated from healthy donor PBMCs were activated with CD3/CD28 tetramer and incubated for 24 hours with Compound A. Cell pellets were processed for RNA isolation and CYP1A1 analysis by quantitative reverse-transcriptase polymerase chain reaction. For the cytokine analysis assay, CD3/CD28 activated T cells were treated with Compound A, and culture supernatants were collected after 48 hours for analysis of IL-22 levels using Meso Scale Discovery V-plex IL-22 plates. Compound A inhibited AHR-dependent gene expression in activated human T cells by decreasing expression of CYP1A1 in a concentration--dependent manner.

Q: What does the source list for `CC(C)c1cnn2c(N[C@@H]3CCc4[nH]c5ccccc5c4C3)nc(-c3cncc(F)c3)nc12` [Compound A, (R)—N-(2-(5-fluoropyridin-3-yl)-8-isopropylpyrazolo[1,5-a][1,3,5]triazin-4-yl)-2,3,4,9-tetrahydro-1H-carbazol-3-amine]?
A: inhibition of CYP1A1 mRNA induction, spleen (AHR [1]; 25 mg/kg Compound A oral with VAG539, at 4 hours): complete inhibition; inhibition of CYP1A1 mRNA increases induced by VAG539, liver (AHR [1]; 25 mg/kg Compound A oral, coadministered with 30 mg/kg VAG539): Complete inhibition; serious adverse events (SAEs) [2]: no serious adverse events; also recorded: without any drug-related serious adverse events; noteworthy findings (monkey) ([3]; monkey): decreased thymus weights and cortical lymphocytes; QTc prolongation ([3]; monkeys): up to 11%; IC50 (AHR [4]; read-out: IC50, inhibition of AHR target gene AHR): 30 nM; IC50 (AHR [4]; read-out: IC50, inhibition of AHR target gene Cyp1B1): 6 nM; effect of Compound A treatment on doxorubicin drug levels in plasma / metabolism of Doxil [5]: does not affect; also recorded: did not have any effect; T cell state (human T cells): induces an activated T cell state; pro-inflammatory cytokines, such as IL-2 and IL-9 (human T cells): increase
